Data taken from patent US9205073B2, “Method for treating virus infection using derivative of aniline” (CHINA MEDICAL UNIVERSITY, priority 2014, dated 2015).

Experiments:
DEN2 [1] = test: Dengue virus replication, DEN2 NS1 antigen-capture ELISA in Huh7 cells; type: cell-based, dengue virus type 2; conditions: M.O.I.=5, 48 hours, compound 10 μM
Protocol: Huh7 cells were cultured in a 24-well culture plate with an initial density of 3×10^4 per well, and with 1 ml of 2% FBS-containing MEM medium per well. The cells were incubated in an incubator (37° C., 5% CO2) overnight. The medium was removed until the cells adhered to the plate. Then, 1 ml of fresh 2% FBS-containing MEM medium was simultaneously added into each well of the culture plate. The cells were infected with DEN2 virus strain (M.O.I.=5). Different concentrations of compound 1 (the final concentrations were 0, 10, 50, 100 and 150 μM, respectively) were added into different wells. The culture plate was placed into an incubator (37° C., 5% CO2) and maintained for 48 hours. The supernatant of viral medium was collected.
The above obtained supernatant was analyzed by an antigen-capture enzyme-linked immunosorbent assay (ELASA) to quantitate the DEN2 NSI protein level in the viral medium. First, a NS1 antibody was added into each well of a 96-well micro-reaction plate (200 μl/well) and the reaction was maintained at 4° C. overnight. Each well was washed with PBST 3 times (200 μl/time). A 1% BSA-containing blocking buffer (300 μl) was added into each well. […] The reading value of DEN NS1 protein amount in each supernatant was determined by examining the absorbances at a wavelength of 450 nm to evaluate DEN2 replication.

EV71 = test: Enterovirus replication, plaque test in RD cells; type: cell-based, enterovirus type 71; conditions: Enterovirus A, 36 h, read-out: inhibitory rate of EV 71 replication
Protocol: The RD cells were cultured in a 24-well culture plate with an initial density of 3×10^4 per well, as well as with 1 ml of 2% FBS-containing MEM medium per well. The cells were incubated in an incubator (37° C., 5% CO2) overnight. The medium was removed, and then, 1 ml of fresh 2% FBS-containing MEM medium was simultaneously added into each well. The RD cells were infected with an EV71 virus strain (M.O.I.=0.1). Different concentrations of compound 1 (final concentrations were 0, 2.5, 25 and 125 μM) were added into different wells respectively. RD cells were incubated in an incubator (37° C., 5% CO2) for 36 hours, and then the viral medium was collected for the following plaque test.
The RD cells were cultured in a 6-well culture plate, and incubated in an incubator (37° C., 5% CO2) overnight. The medium was removed, and then 200 μl of the above 10^4 times diluted viral medium was added into each well. The cells were infected for 1 hour. Then, 3 ml of a 3% agarose covering solution was added into each well. The cells were incubated in an incubator (37° C., 5% CO2) for 3 days. The covering solution was removed. Methyl blue was added into each well, and the plate was placed at room temperature overnight, and then washed with clear water, and dried. The number of plaques was counted to calculate the virus titer and inhibitory rate.

[2] = MTT assay, cell survival / CC50 in TE671 cells; type: cell-based; conditions: human, read-out: concentration of 50% cytotoxicity (CC50)
Protocol: In this example, 3-(4,5-dimethylthiazol-2-yl)-2,5-diphenyl tetrazolium bromide (MTT) was used to determine if the survival rate of BHK-21 cells, TE671cells and RD cells would be influenced when being treated with different concentrations of compound 1 prepared in Example 1. The concentration of 50% cytotoxicity (CC50) of compound 1 in BHK-21 cells, TE671cells and RD cells was also calculated.
MTT is a water-soluble tetrazolium salt which can react in the mitochondrial respiratory chain in living cells to metabolize and reduce the tetrazolium bromide shown in the structure of MTT and to form an water-insoluble purple crystal formazan under the reaction of succinate dehydrogenase (SDH) and cytochrome c (cyt c). The amount of the produced crystal is directly proportional to the number of living cells (because the SDH will disappear from dead cells, and thus, the MTT cannot be reduced). Furthermore, a mitochondrium is an organelle in cells that is most sensitive to the environment, and thus, the MTT assay can serve as a marker for the survival rate of cells treated by the drug.
BHK-21 cells, TE671cells and RD cells were cultured in a 96-well culture plate, respectively, with an initial density of 3×10^3 per well, and with 100 μl of 2% FBS-containing MEM medium per well. […] The absorbances of the samples were measured by ELISA at a wavelength of 570/630 nm.

DEN2 [3] = test: Dengue virus infection-induced cytopathic effect in BHK-21 cells; type: cell-based, dengue virus type 2; conditions: infected 72 hours, M.O.I.=0.1, compound 25 μM
Protocol: BHK-21 cells were cultured in a 24-well culture plate at an initial density of 3×10^4 per well with 1 ml of 2% FBS-containing MEM medium per well. The cells were incubated in an incubator (37° C., 5% CO2) overnight, and the medium was removed until the cells adhered to the plate. Then, 1 ml of fresh 2% FBS-containing MEM medium was simultaneously added into each well of the culture plate; the cells were infected with the DEN2 virus strain (M.O.I.=0.1); different concentrations of compound 1 (the final concentrations were 0, 2.5 and 25 μM, respectively) were added into different wells. BHK-21 cells were incubated in an incubator (37° C., 5% CO2) for 72 hours, and then their morphology was observed by photography.

SMILES: CCOC(=O)C1=C(Nc2cc(C)cc(C)c2)OCC1=O [Compound 1, ethyl 2-(3′,5′-dimethylanilino)-4-oxo-4,5-dihydrofuran-3-carboxylate]
- level of DEN2 NS1 protein (DEN2 [1]): reduced
- inhibition at 2.5 µM (EV71): 4.6%
- inhibition at 25 µM (EV71): 23%
- inhibition at 125 µM (EV71): 24.6%
- CC50 at 48 h [2]: 189 µM
- DEN2-induced cytopathic effect (DEN2 [3]): effectively inhibited
